For the data set, the system named is mammalian L-929 cells. The class given is cell-based. The protocol:
CCIC Huatongwei International Inspection (Suzhou) Co., Ltd. was entrusted to test the potential cytotoxic effect of a recombinant collagen M4 using mammalian L-929 cells cultured in vitro in accordance with method requirements of GB/T16886.5-2017. A test sample and a control sample were placed in a MEM medium including a 10% fetal bovine serum, and extracted in a 37°C incubator for 24 h. After the end of extraction, a cell medium is removed from ta 96-well plate (10^4 cells/well) cultured for 24 h, replaced with the corresponding extraction liquid, and cultured in a cell culture incubator (37°C, 5% CO2, humidity >90% ) for 24 h. After the end of culture, the morphology and lysis of a cell was observed under a microscope. The cytotoxicity value of a test sample was measured using a MTT method. […] After incubation for 24 h, the cell morphology of the extraction liquid with a 100% concentration of the test sample was basically intact, and a cell viability value was 83.6%. The recombinant collagen M4 had no potential cytotoxic effect under the cytotoxicity test conditions of a MTT method.

In the case of `CCN(CC)C(=S)[S-].CCN(CC)C(=S)[S-].[Zn+2]` [ZDEC], the cytotoxic effect result is given as “severe cytotoxic reaction”.

(Values after EP4567044A1, “HIGH-STABILITY RECOMBINANT COLLAGEN, AND CONSTRUCTION METHOD THEREFOR AND USE THEREOF” (Jiangsu Trautec Medical Technology Co., Ltd., priority 2022, dated 2024).)
